Experimental data as given in the supplement of paper PMC10307832.

Legend:
Test in all cases: relative viability (nuclei count vs DMSO), 5 days (fraction); higher = more cells survive
[1] = compound: COc1cc2nccc(Oc3ccc(NC(=O)C4(C(=O)Nc5ccc(F)cc5)CC4)cc3)c2cc1OC [Cabozantinib] + CC1(C)CCC(c2ccc(Cl)cc2)=C(CN2CCN(c3ccc(C(=O)NS(=O)(=O)c4ccc(N[C@H](CCN5CCOCC5)CSc5ccccc5)c(S(=O)(=O)C(F)(F)F)c4)cc3)CC2)C1 [Navitoclax] (partner 0.5 µM)
Summary of the method: (§1)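 Relative viability divides the nuclei count in treated wells by that in vehicle wells. Lung cancer cell lines were seeded in 1536-well plates, dosed by pin tool the next day, and fixed and stained after 5 days in one step with final 0.05% Triton X-100, 1% formaldehyde and 1 ug/ml Hoechst. Dosing was a single drug or a fixed anchor-drug dose plus five library-drug doses (not always all listed) in √10 steps, and values are medians of duplicate plates imaged at 4×.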

Zosuquidar + Lapatinib = compound: O[C@@H](COc1cccc2ncccc12)CN1CCN([C@@H]2c3ccccc3[C@@H]3[C@H](c4ccccc42)C3(F)F)CC1 [Zosuquidar] + CS(=O)(=O)CCNCc1ccc(-c2ccc3ncnc(Nc4ccc(OCc5cccc(F)c5)c(Cl)c4)c3c2)o1 [Lapatinib] (partner 2 µM)
Summary of the method: as §1

Zosuquidar + Palbociclib = compound: O[C@@H](COc1cccc2ncccc12)CN1CCN([C@@H]2c3ccccc3[C@@H]3[C@H](c4ccccc42)C3(F)F)CC1 [Zosuquidar] + CC(=O)c1c(C)c2cnc(Nc3ccc(N4CCNCC4)cn3)nc2n(C2CCCC2)c1=O [Palbociclib] (partner 0.5 µM)
Summary of the method: as §1

Zosuquidar + Luminespib = compound: O[C@@H](COc1cccc2ncccc12)CN1CCN([C@@H]2c3ccccc3[C@@H]3[C@H](c4ccccc42)C3(F)F)CC1 [Zosuquidar] + CCNC(=O)c1noc(-c2cc(C(C)C)c(O)cc2O)c1-c1ccc(CN2CCOCC2)cc1 [Luminespib] (partner 0.01 µM)
Summary of the method: as §1

Cell Line	relative viability ([1]; first compound 0.02 µM)	relative viability ([1]; first compound 0.06325 µM)	relative viability ([1]; first compound 0.2 µM)	relative viability ([1]; first compound 0.6325 µM)	relative viability ([1]; first compound 2 µM)	relative viability (Zosuquidar + Lapatinib; first compound 0.01 µM)	relative viability (Zosuquidar + Lapatinib; first compound 0.03162 µM)	relative viability (Zosuquidar + Lapatinib; first compound 0.3162 µM)	relative viability (Zosuquidar + Lapatinib; first compound 1 µM)	relative viability (Zosuquidar + Palbociclib; first compound 0.01 µM)	relative viability (Zosuquidar + Palbociclib; first compound 0.03162 µM)	relative viability (Zosuquidar + Palbociclib; first compound 0.3162 µM)	relative viability (Zosuquidar + Palbociclib; first compound 1 µM)	relative viability (Zosuquidar + Lapatinib; first compound 0.1 µM)	relative viability (Zosuquidar + Palbociclib; first compound 0.1 µM)	relative viability (Zosuquidar + Luminespib; first compound 0.01 µM)	relative viability (Zosuquidar + Luminespib; first compound 0.03162 µM)	relative viability (Zosuquidar + Luminespib; first compound 0.1 µM)	relative viability (Zosuquidar + Luminespib; first compound 0.3162 µM)	relative viability (Zosuquidar + Luminespib; first compound 1 µM)
HCC-78	0.71	0.682	0.307	0.224	0.186	0.866	1.03	0.893	0.572	0.477	0.545	0.492	0.462							
HCC-366	1.15	1.11	1.16	1.03	1.06	1.08	1.08	1.01	1.15	0.322	0.402	0.394	0.338	1.15	0.355					
HCC-827	1.05	1.07		1.05	0.981	0.183	0.246	0.19	0.246	0.503	0.497	0.498	0.491	0.178	0.501	0.518	0.576	0.501	0.704	0.7
HOP-62	1.13	0.987	1.07	1.05	1.13	0.862	1.05	1.07	1.07	0.444	0.535	0.426	0.401	0.951	0.444	0.878	0.947	0.914	0.99	0.896
IA-LM	1.1	0.912	1.02	1.01	0.965		0.713	1.01	0.881					0.802						
LC-2-ad	0.454	0.57	0.541	0.35	0.325	0.994	1.05	0.989	0.958	0.468	0.465	0.493	0.486	0.993	0.492	1.05	0.85	0.981	0.999	0.987
LCLC-97TM1		0.5	0.618	0.484	0.589	1.07	1.13	1.27	0.881	0.227	0.274	0.193	0.215			0.765	0.755	0.742	0.814	0.913
LCLC-103H										0.453	0.717	0.489	0.482		0.513	0.983	0.957	0.74	0.93	1
LK-2	0.642	1	0.842	0.886	0.794	0.985	0.892	1.18	0.946	0.666	0.722	0.768	0.715	0.923	0.563	0.185	0.184	0.169	0.172	0.172
LOU-NH91	0.72	0.845	0.441	0.666	0.7	0.717	0.851	0.942	0.751	0.488	0.539	0.552	0.499	0.701	0.529	0.331	0.317		0.343	0.355
NCI-H358						0.475	0.415	0.55	0.492	0.119	0.148	0.16	0.136	0.366	0.132	0.334	0.356	0.441	0.347	0.413
NCI-H441		0.508	0.393	0.578	0.662					0.239	0.223	0.281	0.242		0.216	0.355	0.244	0.403	0.286	0.326
NCI-H522										1.14	0.869	1.09	0.908		1.01	1.08	1.19	1.23	0.965	1.28
NCI-H596	1.22	1.2	0.861	0.829	0.729	1.11	1.07	1.13	1.13					1.08		1.1		0.804	0.983	0.931
NCI-H650						0.845	0.879	1.49	0.881	0.305	0.327	0.364	0.378		0.331	0.96	0.764	0.809	0.777	0.904
NCI-H661						0.6	0.423	0.639	0.559	0.404	0.4	0.416	0.408	0.399	0.415	0.911	0.875	0.875	0.938	0.891
NCI-H1299	1.03	1.04	1.08	1.06	1.09	0.971	0.981	1.01	0.958					0.944						
NCI-H1563						0.99	0.81	1.04	0.855					0.813		0.471	0.536	0.523	0.538	0.532
NCI-H1623																0.371	0.511	0.539	0.451	0.476
NCI-H1648										0.297	0.319	0.305	0.242		0.289					
NCI-H1703	0.618	0.48	0.265	0.258	0.206	1.17	1.27	1.45	1.16					0.96						
NCI-H2342										0.531	0.528	0.502	0.553		0.519	0.753	0.591	0.605	0.644	0.845
SW 900										0.568	0.558	0.665	0.596			0.172	0.171	0.181	0.198	0.172
